Experiment: Dissolution test (paddle method, Japanese Pharmacopoeia Sixteenth Edition), first fluid for dissolution test
Format: physicochemical
Conditions: for dissolution rate in the first fluid for dissolution test: 30 minutes after initiation, paddle 50 rpm, 37° C., 900 mL, hydrochloride
Method: In order to evaluate each of the compositions (tablets) in Example 1 and Comparative Example 1, a dissolution test was performed in accordance with dissolution apparatus 2 (paddle method) in the Japanese Pharmacopoeia Sixteenth Edition. Detailed conditions of the dissolution test are as follows.
In order to evaluate each of the compositions (tablets) in Example 2 and Comparative Example 2, a dissolution test was performed in the same manner as in Test Example 1.

[1] = coated tablets of Example 1 / Comparative Example 1 (direct compression), FIG. 5

SMILES	dissolution rate in the first fluid for dissolution test [1]	dissolution rate in the first fluid for dissolution test (coated tablets of Example 2 / Comparative Example 2 (wet granulation method), FIG. 6)	dissolution rate in the first fluid for dissolution test (coated tablets of Example 2 / Comparative Example 2 (wet granulation method), FIG. 6, listed as B-form crystal) [%]	dissolution rate in the first fluid for dissolution test compared with the tablet containing Compound 1 (A-form crystal) (tablets of Example 1 vs Comparative Example 1, FIG. 5)
COc1c(N2C[C@H](CNC3CC3)[C@H](F)C2)c(F)cc2c(=O)c(C(=O)O)cn(CCF)c12.Cl [Compound 1, 7-[(3S,4S)-3-((cyclopropylamino)methyl)-4-fluoropyrrolidine-1-yl]-6-fluoro-1-(2-fluoroethyl)-8-methoxy-4-oxo-1,4-dihydroquinoline-3-carboxylic acid hydrochloride]	at most 25%	at most 30%	–	–
COc1c(N2C[C@H](CNC3CC3)[C@H](F)C2)c(F)cc2c(=O)c(C(=O)O)cn(CCF)c12.Cl [Compound 2, 7-[(3S,4S)-3-{(cyclopropylamino)methyl}-4-fluoropyrrolidine-1-yl]-6-fluoro-1-(2-fluoroethyl)-8-methoxy-4-oxo-1,4-dihydroquinoline-3-carboxylic acid hydrochloride]	≥ 80%	–	≥ 80	higher
